Assay results taken from patent publication US12214092B2, “Systems and methods for treating biological fluids” (Cerus Corporation, priority 2017, dated 2025).

Columns and labels:
[1] = S-59 photoconversion in E. coli-spiked plasma, HPLC; assay type: physicochemical
Experimental: Bacterial titer results pre- and post-UVA treatment are shown in the following Table 4, along with the levels of bacterial inactivation obtained (log reduction). Additionally, the efficiency of photoconversion of amotosalen (S-59) was also determined and shown as percent remaining S-59 after each indicated treatment condition. LOQ represents the limit of quantification. Bacterial titers were analyzed pre- and post-UVA treatment to determine bacterial inactivation levels, which are shown as log reduction in the following Table 5. Additionally, S-59 photoconversion was also determined by HPLC and shown as both absolute concentration and percent remaining after each indicated treatment condition.

E. coli = assay: Amotosalen and UV light (265-385 nm LEDs) treatment of E. coli in plasma, six-well plates, colony forming unit assay; assay type: cell-based; settings: for Log reduction from S-59 / Log reduction total: ~3 J/cm^2, plasma
Text: This system comprised single arrays facing (e.g., opposing) a platform positioned for the illumination of biological fluids placed on the platform (see e.g., FIG. 5). System controls provided for adjustment of the LEDs during treatment of the biological fluid samples, controlling both the timing and intensity of illumination by the LEDs to achieve a desired light UV light dose. Evaluation of photochemical conversion, photoproduct formation, pathogen inactivation, and plasma and/or platelet quality parameters are performed for each light source wavelength as described previously. In one study using the device, photochemical inactivation of various bacteria were tested for each of the above-referenced LEDs together with amotosalen. The bacteria included E. coli (Gram negative), S. epidermidis (Gram positive), and P. acnes (anaerobe). As there are known germicidal effects of ultraviolet light with wavelengths in the UVC and UVB range, the study was controlled to determine for each LED wavelength the total inactivation levels, as well as inactivation levels specifically resulting from the UV light (without added amotosalen) or the photochemical treatment process itself.

[2] = Residual amotosalen after second illumination (two-wavelength treatment); assay type: physicochemical; settings: 15 μM amotosalen, ~3 J/cm^2 each
Experimental: Additionally, any two or more wavelengths of narrow bandwidth light are evaluated in combination, such as for example, photochemical treatment of a biological fluid using amotosalen and ultraviolet light of a first peak wavelength and ultraviolet light of a second peak wavelength, sequentially or concurrently. More specifically, in one example pathogen inactivation of E. coli (Gram negative) and S. epidermidis (Gram positive) bacteria was evaluated using amotosalen and the device with LEDs of wavelengths described in Example 8. […] The spiked plasma units were divided into control (no amotosalen+UV light) and treatment (with amotosalen) conditions, with amotosalen used at 15 μM concentration. The units were aliquoted into six-well plates (5 mL/well) for illumination. Pre-illumination samples were taken and control bacterial titers determined using standard colony forming unit assay. […] Data for pre-illumination titers, post-first illumination titer, post-second illumination titer, and post-treatment (after second illumination) residual amotosalen (S-59) are shown in the following Tables 40-41.

[3] = 340 nm, 220 mL plasma, 15 μM, ~6.4 J/cm^2
[4] = 340 nm, 350 mL plasma, 15 μM, ~6.4 J/cm^2
[5] = INT-100, 220 mL plasma, 15 μM, ~6.4 J/cm^2
[6] = INT-100, 350 mL plasma, 15 μM, ~6.4 J/cm^2

Structure (SMILES): Cc1oc2c(C)c3oc(=O)cc(C)c3cc2c1COCCN [S-59, 3-(2-aminoethoxymethyl)-2,5,9-trimethylfuro[3,2-g]chromen-7-one]
- % S-59 remaining ([1]; 340 nm, 1.5 μM, ~3 J/cm^2): 9.0%
- % S-59 remaining ([1]; 340 nm, 1.5 μM, ~6 J/cm^2): <LOQ
- % S-59 remaining ([1]; 340 nm, 1.5 μM, ~9 J/cm^2): <LOQ
- % S-59 remaining ([1]; 340 nm, 15 μM, ~3 J/cm^2): 13.5%
- % S-59 remaining ([1]; 340 nm, 15 μM, ~6 J/cm^2): 2.5%
- % S-59 remaining ([1]; 340 nm, 15 μM, ~9 J/cm^2): <LOQ
- % S-59 remaining ([1]; 340 nm, 150 μM, ~3 J/cm^2): 39.9%
- % S-59 remaining [1, 3]: 3.0%
- S-59 Remaining [1, 3]: 0.5 µM
- % S-59 remaining [1, 4]: 8.0%
- S-59 Remaining [1, 4]: 1.1 µM
- % S-59 remaining ([1]; INT-100, 15 μM, ~3 J/cm^2): 40.5%
- % S-59 remaining ([1]; INT-100, 150 μM, ~3 J/cm^2): 63.0%
- % S-59 remaining [1, 5]: 26.0%
- S-59 Remaining [1, 5]: 4.0 µM
- % S-59 remaining [1, 6]: 37.0%
- S-59 Remaining [1, 6]: 5.5 µM
- Log reduction from S-59 (E. coli; 15 μM amotosalen, 265 nm): 0 log
- Log reduction total (E. coli; 15 μM amotosalen, 265 nm): 4.52 log
- Log reduction from S-59 (E. coli; 15 μM amotosalen, 280 nm): 0 log
- Log reduction total (E. coli; 15 μM amotosalen, 280 nm): 4.52 log
- Log reduction from S-59 (E. coli; 15 μM amotosalen, 310 nm): 1.15 log
- Log reduction total (E. coli; 15 μM amotosalen, 310 nm): 4.52 log
- Log reduction from S-59 (E. coli; 15 μM amotosalen, 325 nm): 3.81 log
- Log reduction total (E. coli; 15 μM amotosalen, 325 nm): 4.52 log
- Log reduction from S-59 (E. coli; 15 μM amotosalen, 340 nm): 2.94 log
- Log reduction total (E. coli; 15 μM amotosalen, 340 nm): 4.52 log
- Log reduction from S-59 (E. coli; 15 μM amotosalen, 365 nm): 2.76 log
- Log reduction total (E. coli; 15 μM amotosalen, 365 nm): 4.52 log
- Log reduction from S-59 (E. coli; 15 μM amotosalen, 385 nm): 0.49 log
- Log reduction total (E. coli; 15 μM amotosalen, 385 nm): 1.5 log
- Log reduction from S-59 (E. coli; 150 μM amotosalen, 265 nm): 0.54 log
- Log reduction total (E. coli; 150 μM amotosalen, 265 nm): 5.01 log
- Log reduction from S-59 (E. coli; 150 μM amotosalen, 280 nm): 0.59 log
- Log reduction total (E. coli; 150 μM amotosalen, 280 nm): 5.38 log
- Log reduction from S-59 (E. coli; 150 μM amotosalen, 310 nm): 2.29 log
- Log reduction total (E. coli; 150 μM amotosalen, 310 nm): 6.23 log
- Log reduction from S-59 (E. coli; 150 μM amotosalen, 325 nm): 5.36 log
- Log reduction total (E. coli; 150 μM amotosalen, 325 nm): 5.70 log
- Log reduction from S-59 (E. coli; 150 μM amotosalen, 340 nm): 4.93 log
- Log reduction total (E. coli; 150 μM amotosalen, 340 nm): 5.64 log
- Log reduction from S-59 (E. coli; 150 μM amotosalen, 365 nm): 4.90 log
- Log reduction total (E. coli; 150 μM amotosalen, 365 nm): 5.30 log
- Log reduction from S-59 (E. coli; 150 μM amotosalen, 385 nm): 4.34 log
- Log reduction total (E. coli; 150 μM amotosalen, 385 nm): 4.95 log
- photochemical inactivation (E. coli; summary for bacteria of Example 8, amotosalen+325 nm and amotosalen+340 nm illumination): greater than 4 logs
- S-59 ([2]; E. coli plasma, UV 1 265 nm then UV 2 325 nm): 4.76 µM
- S-59 ([2]; E. coli plasma, UV 1 265 nm then UV 2 340 nm): 3.89 µM
- S-59 ([2]; E. coli plasma, UV 1 265 nm then UV 2 365 nm): 8.07 µM
- S-59 ([2]; E. coli plasma, UV 1 280 nm then UV 2 325 nm): 4.44 µM
- S-59 ([2]; E. coli plasma, UV 1 280 nm then UV 2 340 nm): 3.62 µM
- S-59 ([2]; E. coli plasma, UV 1 280 nm then UV 2 365 nm): 7.96 µM
- S-59 ([2]; E. coli plasma, UV 1 325 nm then UV 2 265 nm): 4.88 µM
- S-59 ([2]; E. coli plasma, UV 1 325 nm then UV 2 280 nm): 4.66 µM
- S-59 ([2]; E. coli plasma, UV 1 340 nm then UV 2 265 nm): 4.43 µM
- S-59 ([2]; E. coli plasma, UV 1 340 nm then UV 2 280 nm): 4.46 µM
- S-59 ([2]; E. coli plasma, UV 1 365 nm then UV 2 265 nm): 8.13 µM
- S-59 ([2]; E. coli plasma, UV 1 365 nm then UV 2 280 nm): 8.00 µM
- S-59 ([2]; S. epidermidis plasma, Light 1 265 nm then Light 2 325 nm): 4.82 µM
- S-59 ([2]; S. epidermidis plasma, Light 1 265 nm then Light 2 340 nm): 3.93 µM
- S-59 ([2]; S. epidermidis plasma, Light 1 265 nm then Light 2 365 nm): 8.17 µM
- S-59 ([2]; S. epidermidis plasma, Light 1 280 nm then Light 2 325 nm): 4.50 µM
- S-59 ([2]; S. epidermidis plasma, Light 1 280 nm then Light 2 340 nm): 3.77 µM
- S-59 ([2]; S. epidermidis plasma, Light 1 280 nm then Light 2 365 nm): 8.01 µM
- S-59 ([2]; S. epidermidis plasma, Light 1 325 nm then Light 2 265 nm): 4.92 µM
- S-59 ([2]; S. epidermidis plasma, Light 1 325 nm then Light 2 280 nm): 4.63 µM
- S-59 ([2]; S. epidermidis plasma, Light 1 340 nm then Light 2 265 nm): 4.47 µM
- S-59 ([2]; S. epidermidis plasma, Light 1 340 nm then Light 2 280 nm): 4.46 µM
- S-59 ([2]; S. epidermidis plasma, Light 1 365 nm then Light 2 265 nm): 8.39 µM
- S-59 ([2]; S. epidermidis plasma, Light 1 365 nm then Light 2 280 nm): 8.07 µM
